According to PubChem BioAssay (NCI):
Several values for one entry are separate records, joined by “and”; a condition that tells them apart may be missing. Identical values can stand only once.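 Results reflect a 48-hour exposure of cells in 96-well plates to compound at five concentrations. Abbreviation: GI50, concentration required for 50% inhibition of growth. TGI marks complete inhibition of growth.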

Experiments:
Test in all cases: inhibition of tumour cell growth, NCI panel, 48 h
[1] = test system: M14 melanoma
[2] = test system: HT29 colon
[3] = test system: MOLT-4 leukemia
[4] = test system: UACC-257 melanoma
[5] = test system: UACC-62 melanoma
[6] = test system: NCI-H522 lung
[7] = test system: OVCAR-3 ovarian
[8] = test system: A549 NSCLC
[9] = test system: NCI-H23 lung

Row | Compound | TGI [1] | TGI [2] | TGI [3] | TGI [4] | TGI [5] | TGI [6] | TGI [7] | TGI [8] | TGI [9] | GI50 [1] | GI50 [2] | GI50 [3] | GI50 [4] | GI50 [5] | GI50 [6] | GI50 [7] | GI50 [8] | GI50 [9]
1 | Nc1nc(=Nc2ccccc2)ss1 | > 100 µM | > 100 µM | > 100 µM | > 100 µM | > 100 µM | > 100 µM | > 100 µM | > 100 µM | > 100 µM | – | – | – | – | – | – | – | – | –
2 | COc1ccc(C2C3=C(COC3=O)Oc3cc4c(cc32)OCO4)cc1 (stereo not given) | > 100 µM | 22.5 µM | 81.1 µM | > 100 µM | > 100 µM | – | 41.3 µM | > 100 µM | > 100 µM | – | – | – | – | – | – | – | – | –
3 | COc1cc(/C=C2\C[C@H]3[C@@H]4CC=C5C[C@@H](OC(C)=O)CC[C@]5(C)[C@H]4CC[C@]3(C)[C@H]2OC(C)=O)ccc1OCCN1CCCCC1 | 10 µM | > 50 µM | > 50 µM | 13.6 µM | 15 µM | > 50 µM | > 50 µM | > 50 µM | > 50 µM | 2.46 µM | 23.2 µM | > 50 µM | 5.77 µM | 8.14 µM | > 50 µM | 18.5 µM | 19.3 µM | > 50 µM
4 | COc1ccccc1NC(=O)C(CC(C(=O)Nc1ccccc1OC)/C(C)=N/NC(=O)c1ccccc1O)/C(C)=N/NC(=O)c1ccccc1O (stereo not given) | > 100 µM | > 100 µM | > 100 µM | > 100 µM | – | > 100 µM | > 100 µM | > 100 µM | > 100 µM | – | – | – | – | – | – | – | – | –
5 | CCOC(=O)c1cc(OC(=O)CC)c2c(OC)ccc(OC)c2c1 | – | – | > 100 µM | – | > 100 µM | > 100 µM | – | > 100 µM | > 100 µM | – | – | – | – | – | – | – | – | –
6 | COC(C)(C)[C@H](O)C(O)CC(C)[C@@H]1CCC23CC12CCC1[C@@]2(C)CCC(OC(C)=O)C(C)(C)C2CC(OC2OC(COC(C)=O)C(O)C(O)C2O)[C@]13C (stereo not given in full) | 9.78 µM and 14.2 µM | 2.49 µM and 3.67 µM | 26.7 µM and 15.8 µM | 11.7 µM and 26 µM | 9.47 µM and 19.2 µM | 6.72 µM and 17.7 µM | 10.8 µM and 15.9 µM | 10.1 µM and 13.8 µM | 16 µM and 25.2 µM | 3.58 µM | 1.83 µM | 0.00625 µM | 11.5 µM | 6.28 µM | 3.85 µM | 4.26 µM | 3.67 µM | 11.3 µM
7 | O=C(C=Nc1ccccc1C(=O)[O-])c1cccs1.O=C(C=Nc1ccccc1C(=O)[O-])c1cccs1.[Zn+2] | > 100 µM | > 100 µM | > 100 µM | 43 µM | 42 µM | 47.9 µM | 29.1 µM | > 100 µM | > 100 µM | – | – | – | – | – | – | – | – | –
